Where two headings read alike, the source gives them in different places.
How the values were obtained:
A-549 = test: SRB cell growth/viability assay, A-549; conditions: for GI50: read-out: A-549 GI50
Excerpt: (§1) A colorimetric type of assay, using sulforhodamine B (SRB) reaction has been adapted for a quantitative measurement of cell growth and viability: see Skehan, P. A. et al. J. Natl. Cancer Inst., 1990, 82, 1107-1112. This form of the assay employs 96 well cell culture microplates of 9 mm diameter (Faircloth, G. T.; Stewart, D. and Clement, J. J., Journal of Tissue and Culture Methods, 1983, 11, 201-205; Mosmann, T. Journal of Immunological Methods, 1983, 65, 55-63.).
(§2) Most of the cell lines are obtained from American Type Culture Collection (ATCC) derived from different human cancer types. Cells are maintained in RPMI 1640 10% FBS, supplemented with 0.1 g/l penicillin and 0.1 g/l streptomycin sulfate and then incubated at 37° C., 5% CO2 and 98% humidity. For the experiments, cells were harvested from subconfluent cultures using trypsin and resuspended in fresh medium before plating.
(§3) Cells are seeded in 96 well microtiter plates, at 5×10^3 cells per well in aliquots of 195 μl medium, and they are allowed to attach to the plate surface by growing in drug free medium for 18 hours. Afterward, samples are in aliquots of 5 pi in a ranging from 10 to 10-8 μg/ml dissolved in DMSO/EtOH (0.2% in PS buffer). After 48 hours exposure, the antitumour effect are measured by the SRB methodology: cells are fixed by adding 50 μl of cold 50% (w/v) trichloroacetic acid (TCA) and incubating for 60 minutes at 4° C. Plates are washed with deionized water and dried. 100 μl of SRB solution (0.4% w/v in 1% acetic acid) is added to each microtiter well and incubated for 10 minutes at room temperature. Unbound SRB is removed by washing with 1% acetic acid. Plates are air-dried and bound stain is solubilized with Tris buffer. Optical densities are read on an automated spectrophotometric plate reader at a single wavelength of 490 nm.
(§4) The values for mean +/− SD of data from triplicate wells are calculated Some parameters for cellular responses can be calculated: […], TGI=total growth inhibition (cytostatic effect) and LC=cell killing (cytotoxic effect).

HT-29 = test: SRB cell growth/viability assay, HT-29; conditions: for GI50: read-out: HT-29 GI50
Excerpt: as §1, §2, §3, §4

[1] = Homo sapiens, A549, 48 h, read-out: A-549 LC50
[2] = Homo sapiens, HT-29, 48 h, read-out: HT-29 LC50

Compound | GI50 (A-549; Homo sapiens, A549, 48 h) [µM] | CC50 (A-549; [1]) [µM] | GI50 (HT-29; Homo sapiens, HT-29, 48 h) [µM] | CC50 (HT-29; [2]) [µM] | CC50 (A-549) [µM] | GI50 (A-549; Table 2, A-549, 48 hours exposure, SRB) [µM] | CC50 (HT-29) [µM] | GI50 (HT-29; Table 2, HT-29, 48 hours exposure, SRB) [µM]
CC(=O)Nc1nccc(-c2c3cccnc3n3c(NC(C)=O)nccc23)n1 [Compound 23e, N′-acetyl-N-acetyldeoxyvariolin] | 2.2 | 28 | 5.5 | > 28 | – | – | – | –
C[S+]([O-])c1nccc(-c2c3cccnc3n3c(N)nccc23)n1 (centres unmarked) [Compound 22, sulfinyldeoxyvariolin] | 1.2 | 92 | 0.92 | > 150 | – | – | – | –
COc1ccc(CNc2nccc(-c3c4cccnc4n4c(NCc5ccc(OC)cc5)nccc34)n2)cc1 [Compound 29, N′,N-bis(p-methoxybenzyl)deoxyvariolin] | > 97 | > 97 | > 97 | > 97 | – | – | – | –
Nc1nccc2c(-c3ccnc(NC(=O)C(F)(F)F)n3)c3cccnc3n12 [Compound 26, N′-trifluoroacetyldeoxyvariolin] | 0.27 | 27 | 0.8 | 110 | – | – | – | –
CC(=O)N(C(C)=O)c1nccc(-c2c3cccnc3n3c(N)nccc23)n1 [Compound 23a, N′-bisacetyldeoxyvariolin] | 0.28 | 2.8 | 0.14 | 2.8 | – | – | – | –
Nc1nccc2c(-c3ccnc(NCc4ccccc4)n3)c3cccnc3n12 [Compound 28d, N′-benzyldeoxyvariolin] | 1.4 | 27 | 1.4 | 22 | – | – | – | –
CS(=O)(=O)c1nccc(-c2c3cccnc3n3c(N)nccc23)n1 [Compound 6, sulfonyldeoxyvariolin] | 4.4 | > 150 | 29 | > 150 | – | – | – | –
CCNc1nccc(-c2c3cccnc3n3c(N)nccc23)n1 [Compound 28b, N′-ethyldeoxyvariolin] | > 33 | > 33 | > 33 | > 33 | – | – | – | –
CC(=O)Nc1nccc(-c2c3cccnc3n3c(N)nccc23)n1 [Compound 23d, N′-acetyldeoxyvariolin] | 0.63 | 3.2 | 0.63 | 3.2 | – | – | – | –
CCCCN(C)c1nccc(-c2c3cccnc3n3c(N)nccc23)n1 [Compound 28c, N′-butylmethyldeoxyvariolin] | 2.9 | 23 | 2.9 | 23 | – | – | – | –
bis-sulfinyldeoxyvariolin [Compound 20] | – | – | – | – | > 130 | 54 | > 130 | 110
CC(=O)Nc1nccc2c(-c3ccnc(N(C(C)=O)C(C)=O)n3)c3cccnc3n12 [Compound 23b, N′-bisacetyl-N-acetyldeoxyvariolin] | 0.74 | 7.4 | 0.1 | 2.5 | – | – | – | –
Nc1nccc2c(-c3ccnc(N(C(=O)/C=C/c4ccccc4)C(=O)/C=C/c4ccccc4)n3)c3cccnc3n12 [Compound 24a, N′-biscinnamoyldeoxyvariolin] | 0.12 | 12 | 4.9 | > 120 | – | – | – | –
CSc1nccc(-c2c3cccnc3n3c(SC)nccc23)n1 [Compound 19] | 5.9 | 29 | 5.9 | 29 | – | – | – | –
COc1nccc(-c2c3cccnc3n3c(N)nccc23)n1 [Compound 27, methoxydeoxyvariolin] | 0.068 | 2.7 | 0.17 | 34 | – | – | – | –
O=C(C=Cc1ccccc1)Nc1nccc2c(-c3ccnc(N(C(=O)/C=C/c4ccccc4)C(=O)/C=C/c4ccccc4)n3)c3cccnc3n12 [Compound 24b, N′-biscinnamoyl-N-cinnamoyldeoxyvariolin] | 3 | 75 | 1.5 | 75 | – | – | – | –
CC(=O)N(C(C)=O)c1nccc(-c2c3cccnc3n3c(N(C(C)=O)C(C)=O)nccc23)n1 [Compound 23c, N′-bisacetyl-N-bisacetyldeoxyvariolin] | 2.2 | 22 | 1.1 | 18 | – | – | – | –
